Laboratory results from patent US12544575B2, “Bioelectric neuromodulation for hematopoiesis regulation during chemotherapy” (THE REGENTS OF THE UNIVERSITY OF CALIFORNIA, priority 2020, dated 2026).

Key:
Assay type in all cases: in vivo, rat
SD rats [1] = assay: Survival of rats after two cycles of carboplatin chemotherapy; details: after two cycles of carboplatin over a period of 60 days; carboplatin 60 mg/kg intraperitoneally on day 0, ES or G-CSF on day 2
Description: (§1) In FIG. 7A is seen white blood cell concentration for each of the five groups of rats which were tested over two cycles of testing. Male SD rats (weighing 350 to 400 g) were used for studying chemotherapy-induced cytopenia. The rats were divided into five experimental groups: control group; electrical stimulation group; carboplatin group; carboplatin+electrical stimulation (ES) group; and carboplatin+G-CSF group.
(§2) For each cycle of treatment, a single dose of carboplatin (e.g., 60 mg/kg) or vehicle (saline) was injected intraperitoneally on day 0. On day 2, electrical autonomic nerve stimulation was performed for a specified period (e.g., 60 minutes), or a single dose of G-CSF was administered on the rats according to the different experimental groups. In the example treatment each cycle of treatment is considered to be 28 days, however, a treatment cycle could span from one to eight weeks.
FIG. 10 illustrates an example embodiment 590 of results indicating survival rates of the rats in the same five groups (control, ES, carboplatin, carboplatin+ES, and carboplatin+G-CSF) as previously described after two cycles of carboplatin over a period of 60 days.

SD rats [2] = assay: Chemotherapy-induced cytopenia, complete blood count of peripheral blood
Description: as §1, §2
Blood samples for complete blood count (CBC) were collected in EDTA tubes on various days (day 0, 2, 7, 10, 14, 17, 21, and 28).

bone marrow of SD rats = assay: Immunofluorescence staining of the bone marrow microenvironment (nestin, TH, CD31)
Description: The testing utilized immunofluorescence staining of nestin for mesenchymal stem cell, tyrosine hydroxylase (TH+) for sympathetic nerve, and CD31 for vascular to evaluate the alteration of bone marrow microenvironment after […] of carboplatin.
After two cycles of chemotherapy, exemplified as using carboplatin with different dosages of 40 mg/kg and 60 mg/kg, the bone marrow of the rats from the five experimental groups was analyzed by immunofluorescence to evaluate the alteration of the bone marrow microenvironment. The bone marrow tissue of rats was stained with nestin, TH and anti-CD31 antibody for mesenchymal stem cell, sympathetic nerve and endothelial cell, respectively.

[3] = after three cycles of carboplatin
[4] = after two cycles of carboplatin, 40 mg/kg and 60 mg/kg

SMILES: N.N.O=C([O-])C1(C(=O)[O-])CCC1.[Pt+2] [carboplatin]
- survival rate (SD rats [1]): 37.5%
- concentration of hemoglobin (SD rats [2]; after carboplatin administration, whether rescue by electrical stimulation or G-CSF): significantly decreased
- platelet count compared to the control group (SD rats [2]; day 10 of the first and second cycle): significantly reduced
- area of TH+/CD31 by immunofluorescence staining versus control group (bone marrow of SD rats; [3]): lower levels
- expression of TH+ in the sympathetic nerve (bone marrow of SD rats; [3]): reduced expression
- expression of nestin (mesenchymal stem cell) in comparison to the control group (bone marrow of SD rats; [3]): more extensive expression
- area of the sympathetic nerve along with arteriole compared to the control group (bone marrow of SD rats; [4]): significantly decreased
- mesenchymal stem cells compared to the control group (bone marrow of SD rats; [4]): increased
